# Measurements from patent publication US20260076902A1, “LIQUID, STORAGE STABLE, DIRECTLY INJECTABLE, PANTOPRAZOLE FORMULATIONS, THEIR USES AND MANUFACTURING” (Etico Lifesciences Private Limited, priority 2024, published 2026).
# Assay: Dilution with 0.9% sodium chloride solution, precipitation
# Format: physicochemical
# Details: alpha tocopherol tested as stabilizer
compound,measurement,value
Cc1c(C)c2c(c(C)c1O)CC[C@@](C)(CCC[C@H](C)CCC[C@H](C)CCCC(C)C)O2 [Alpha tocopherol],behaviour upon dilution with 0.9% sodium chloride solution,precipitation was formed
